For 32 compounds, IC50 results are on record in patent publication US8921368B2, “Pyrrolopyridazine JAK3 inhibitors and their use for the treatment of inflammatory and autoimmune diseases” (Bristol-Myers Squibb Company, priority 2011, dated 2014).

One experiment has as its target JAK1 (Homo sapiens (Human), UniProt P23458). The experiment in a line: JAK1 Kinase Assay Protocol. To be noted: GST-JAK1; ATP 100 μM; Caliper LabChip; read-out: LLE_JAK1 (IC50). The class given is biochemical. How it is done:
JAK1 Kinase Assay Protocol
The assay reactions were performed in U-bottom 384-well plates. The final assay volume was 30 μl prepared from 15 μl additions of enzyme and substrates (fluoresceinated peptide and ATP) and test compounds in assay buffer (20 mM HEPES pH 7.4, 10 mM MgCl2, 25 mM beta-glycerol phosphate, 0.015% Brij35 and 4 mM DTT). The reaction was initiated by the combination of GST-JAK1 enzyme with substrates and test compounds. The reactions were incubated at room temperature for 3 hours and terminated by adding 60 μl of 35 mM EDTA to each sample. […] The final concentration of reagents in the assays was: ATP, 100 μM; fluoresceinated peptide, 1.5 μM; GST-JAK1, 12.5 nM; and DMSO, 1.6%. […] Compounds were dissolved at 10 mM in dimethylsulfoxide (DMSO) and evaluated at eleven concentrations. IC50 values were derived by non-linear regression analysis.

The next experiment addresses JAK3 (Homo sapiens (Human), UniProt P52333). The experiment in a line: JAK3 Kinase Assay (Caliper / Filter protocols). The class given is biochemical. To be noted: JAK3 kinase inhibition; ATP 8 μM; read-out: LLE_JAK3_FB (IC50). How it is done: JAK3 Kinase Assay Protocol (Caliper)
The assay reactions were performed in U-bottom 384-well plates. […] The reaction was initiated by the combination of GST-JAK3 enzyme with substrates and test compounds. The reactions were incubated at room temperature for 3 hours and terminated by adding 60 μl of 35 mM EDTA to each sample. […] Compounds were dissolved at 10 mM in dimethylsulfoxide (DMSO) and evaluated at eleven concentrations. IC50 values were derived by non-linear regression analysis.
JAK3 Kinase Assay Protocol (Filter)
Kinase reactions consisted of 5 ng of JAK3 enzyme, 30 uM CSKtide substrate, 0.2 μCi ^33P γ-ATP, 8 μM ATP in 30 μl kinase buffer (50 mM Hepes, pH 8.0, 10 mM MgCl2, 1 mM EGTA, 2 mM DTT). Reactions were incubated for 30 minutes at room temperature and stopped by the addition of cold trichloroacetic acid (TCA) to a final concentration of 15%. TCA precipitates were collected onto 384 well phosphocellulose filters (Millipore) using a Platemate to transfer the reaction mixture, washed on an EMBLA plate washer and the filters were quantitated using a TopCount 384-well liquid scintillation counter. […] Compounds were dissolved at 10 mM in dimethylsulfoxide (DMSO) and evaluated at six concentrations, each in triplicate. The final concentration of DMSO in the assay equaled 2%. IC50 values were derived by non-linear regression analysis.

One may read the IC50 as the concentration at which inhibition is half-maximal.

JAK3, sequence (P52333 whole entry): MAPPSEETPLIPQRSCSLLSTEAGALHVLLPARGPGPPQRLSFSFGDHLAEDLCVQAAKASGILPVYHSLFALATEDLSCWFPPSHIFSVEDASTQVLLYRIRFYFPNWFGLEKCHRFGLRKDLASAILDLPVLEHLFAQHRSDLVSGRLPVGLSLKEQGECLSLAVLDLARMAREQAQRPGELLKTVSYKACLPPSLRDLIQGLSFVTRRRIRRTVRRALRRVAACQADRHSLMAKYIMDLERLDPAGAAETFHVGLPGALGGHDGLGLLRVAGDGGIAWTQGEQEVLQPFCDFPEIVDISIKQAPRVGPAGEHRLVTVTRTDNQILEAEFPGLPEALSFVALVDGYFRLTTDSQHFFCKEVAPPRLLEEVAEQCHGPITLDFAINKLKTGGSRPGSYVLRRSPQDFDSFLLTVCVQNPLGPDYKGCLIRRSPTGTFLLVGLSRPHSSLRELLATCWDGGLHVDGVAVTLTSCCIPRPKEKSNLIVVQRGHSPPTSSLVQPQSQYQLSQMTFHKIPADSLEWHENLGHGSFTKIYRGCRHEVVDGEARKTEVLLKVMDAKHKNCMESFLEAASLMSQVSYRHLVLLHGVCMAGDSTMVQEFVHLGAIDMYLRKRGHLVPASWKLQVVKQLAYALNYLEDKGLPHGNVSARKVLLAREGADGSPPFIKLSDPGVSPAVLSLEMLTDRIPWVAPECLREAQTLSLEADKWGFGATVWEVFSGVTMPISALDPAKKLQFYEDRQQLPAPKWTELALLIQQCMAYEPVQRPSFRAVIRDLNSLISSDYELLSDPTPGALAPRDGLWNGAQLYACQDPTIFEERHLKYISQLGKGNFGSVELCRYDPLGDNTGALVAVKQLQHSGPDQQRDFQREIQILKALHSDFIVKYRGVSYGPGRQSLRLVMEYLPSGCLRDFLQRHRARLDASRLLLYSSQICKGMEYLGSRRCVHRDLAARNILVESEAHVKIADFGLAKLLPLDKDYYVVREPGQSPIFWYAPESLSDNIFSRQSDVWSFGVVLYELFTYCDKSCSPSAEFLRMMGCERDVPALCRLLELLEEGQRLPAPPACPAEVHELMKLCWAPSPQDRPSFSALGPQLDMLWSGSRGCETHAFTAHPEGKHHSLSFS
JAK1, sequence (P23458 whole entry): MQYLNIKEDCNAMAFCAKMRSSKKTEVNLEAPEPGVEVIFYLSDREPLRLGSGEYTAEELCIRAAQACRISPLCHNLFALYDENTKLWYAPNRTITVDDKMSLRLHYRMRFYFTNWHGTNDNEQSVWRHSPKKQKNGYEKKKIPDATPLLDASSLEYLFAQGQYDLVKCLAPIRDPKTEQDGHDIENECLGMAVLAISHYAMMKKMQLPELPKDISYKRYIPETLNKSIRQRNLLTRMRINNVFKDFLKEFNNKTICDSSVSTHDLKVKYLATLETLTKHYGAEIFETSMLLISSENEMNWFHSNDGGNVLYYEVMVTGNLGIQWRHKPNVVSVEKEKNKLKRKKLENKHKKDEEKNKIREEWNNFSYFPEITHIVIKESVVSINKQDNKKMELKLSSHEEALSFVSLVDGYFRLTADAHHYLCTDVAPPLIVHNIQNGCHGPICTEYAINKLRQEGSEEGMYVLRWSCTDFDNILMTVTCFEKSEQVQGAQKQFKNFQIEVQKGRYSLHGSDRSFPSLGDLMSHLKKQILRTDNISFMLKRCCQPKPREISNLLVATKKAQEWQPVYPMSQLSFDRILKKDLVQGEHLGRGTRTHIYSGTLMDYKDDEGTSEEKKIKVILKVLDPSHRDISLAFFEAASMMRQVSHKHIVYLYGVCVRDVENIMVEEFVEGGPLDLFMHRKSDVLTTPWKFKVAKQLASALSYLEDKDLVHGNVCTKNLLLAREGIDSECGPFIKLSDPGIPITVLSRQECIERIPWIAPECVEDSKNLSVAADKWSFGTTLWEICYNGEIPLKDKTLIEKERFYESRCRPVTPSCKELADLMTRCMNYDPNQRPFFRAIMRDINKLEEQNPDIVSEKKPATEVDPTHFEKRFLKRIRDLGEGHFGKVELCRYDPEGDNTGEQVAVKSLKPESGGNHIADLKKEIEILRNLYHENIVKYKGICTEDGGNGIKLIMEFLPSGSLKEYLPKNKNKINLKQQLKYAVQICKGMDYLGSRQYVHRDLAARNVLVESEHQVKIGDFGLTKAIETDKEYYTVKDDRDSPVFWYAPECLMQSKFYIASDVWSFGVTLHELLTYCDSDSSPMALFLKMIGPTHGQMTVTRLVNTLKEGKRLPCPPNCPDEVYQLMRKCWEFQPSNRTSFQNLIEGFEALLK

With `CC1(C)[C@H](Nc2c(C(N)=O)cnn3cc(NS(C)(=O)=O)cc23)CC[C@@]1(C)O` (racemic) [Example 3], the IC50 at JAK1 stood at 45.8 nM; at JAK3 it was 6 nM. Take `CC(=O)Nc1cc2c(N[C@@H]3CC[C@@](C)(O)C3(C)C)c(C(N)=O)cnn2c1` (racemic) [Example 7]: the values for the IC50 on JAK1 and at JAK3 were 8.2 nM and 0.9 nM, respectively.

Regarding `CC1(C)[C@H](Nc2c(C(N)=O)cnn3cc(NS(=O)(=O)c4ccccc4)cc23)CC[C@@]1(C)O` (racemic) [Example 22], the values for the half-maximal inhibitory concentration (IC50) on JAK1 and at JAK3 were 239 nM and 22.1 nM, respectively. Regarding `CC1(C)[C@H](Nc2c(C(N)=O)cnn3cc(NS(=O)(=O)c4ccc(Cl)cc4)cc23)CC[C@@]1(C)O` (racemic) [Example 23], the results for the half-maximal inhibitory concentration (IC50) on JAK1 and at JAK3 were 258 nM and 23.4 nM, respectively. In the case of `COc1ccc(S(=O)(=O)Nc2cc3c(N[C@@H]4CC[C@@](C)(O)C4(C)C)c(C(N)=O)cnn3c2)cc1` (racemic) [Example 24], on JAK3, the IC50 was found to be 34.2 nM. Regarding `CCS(=O)(=O)Nc1cc2c(N[C@@H]3CC[C@@](C)(O)C3(C)C)c(C(N)=O)cnn2c1` (racemic) [Example 25], the IC50 on JAK1 amounted to 83.9 nM; at JAK3, 8.1 nM. The matching figures for `CC(C)c1ccccc1-c1cc2c(N[C@@H]3CCC[C@]3(C)F)c(C(N)=O)cnn2c1` (racemic) [Example 60]: 253 nM and 136 nM. Take `C[C@]1(F)CCC[C@H]1Nc1c(C(N)=O)cnn2cc(-c3cncc4ccccc34)cc12` (racemic) [Example 68]: the IC50 on JAK3 is 46.4 nM. For the compound `Cc1cccc(-c2cc3c(N[C@@H]4CCC[C@]4(C)F)c(C(N)=O)cnn3c2)c1` (racemic) [Example 72], the figures for the IC50 at JAK1 and on JAK3 were 1.3 nM and 0.3 nM, respectively. `C[C@]1(F)CCC[C@H]1Nc1c(C(N)=O)cnn2cc(-c3cccc(C(N)=O)c3)cc12` (racemic) [Example 94]: the IC50 on JAK1 worked out at 1.4 nM; at JAK3, 0.5 nM. For `Cn1nccc1-c1cc2c(N[C@@H]3C[C@@H](O)[C@@H](O)C3(C)C)c(C(N)=O)cnn2c1` (racemic) [Example 142], the IC50 at JAK1 was 10.9 nM; at JAK3 it was 5.6 nM. Consider `Cn1nccc1-c1cc2c(N[C@@H]3CC[C@](C)(O)C3(C)C)c(C(N)=O)cnn2c1` (racemic) [Example 148], for which the IC50 on JAK1 came out at 46.4 nM; on JAK3, 25.2 nM. For `C[C@]1(F)CCC[C@H]1Nc1c(C(N)=O)cnn2cc(N3CCCC3=O)cc12` (racemic) [Example 159], the IC50 came to 3.8 nM on JAK1 and 0.5 nM at JAK3. The matching figures for `C[C@]1(O)CCCC[C@@H]1Nc1c(C(N)=O)cnn2cc(-c3ccccc3)cc12` (racemic) [Example 314, (+/−)-4-(((1S,2S)-2-hydroxy-2-methylcyclohexyl)amino)-6-phenylpyrrolo[1,2-b]-pyridazine-3-carboxamide]: 17.4 nM and 5.1 nM. On the same counts, the results for `C[C@]1(F)CCC[C@H]1Nc1c(C(N)=O)cnn2cc(N3CCOCC3=O)cc12` (racemic) [Example 318] are 13.4 nM and 7.1 nM. Turning to `CC1(C)[C@@H](Nc2c(C(N)=O)cnn3cc(-c4ccc(C#N)cc4)cc23)CC[C@@]1(C)N` [Example 112], the IC50 on JAK1 is 12.7 nM; on JAK3, 9.4 nM. In the case of `CC1(C#N)CCCC1Nc1c(C(N)=O)cnn2cc(-c3ccccc3)cc12` (centres unmarked) [Example 123], the IC50 is 1 nM at JAK1 and 0.2 nM on JAK3.

Regarding `CC1(C)[C@H](Nc2c(C(N)=O)cnn3cc(-c4ccccc4)cc23)CC[C@]1(C)NS(C)(=O)=O` [Example 129], the IC50 was found to be 2.6 nM on JAK1 and 1 nM on JAK3.

As to `Cn1nccc1-c1cc2c(N[C@H]3CC[C@@](C)(O)CC3)c(C(N)=O)cnn2c1` [Example 162, 4-((4-hydroxy-4-methylcyclohexyl)amino)-6-(1-methyl-1H-pyrazol-5-yl)pyrrolo[1,2-b]pyridazine-3-carboxamide], the IC50 on JAK3 stood at 62.7 nM. Regarding `C[C@]1(O)CC[C@@H](Nc2c(C(N)=O)cnn3cc(-c4ccccc4C(N)=O)cc23)CC1` [Example 166, 6-(2-carbamoylphenyl)-4-((cis-4-hydroxy-4-methylcyclohexyl)amino)pyrrolo[1,2-b]pyridazine-3-carboxamide], the IC50 is 72.4 nM on JAK1 and 33.6 nM on JAK3. For `C[C@]1(O)CC[C@@H](Nc2c(C(N)=O)cnn3cc(-c4ccc(C#N)cc4)cc23)CC1` [Example 167, 6-(4-cyanophenyl)-4-((cis-4-hydroxy-4-methylcyclohexyl)amino)pyrrolo[1,2-b]pyridazine-3-carboxamide], the IC50 at JAK1 came out at 6.1 nM; on JAK3, 1.6 nM.

On to `C[C@]1(O)CC[C@@H](Nc2c(C(N)=O)cnn3cc(-c4cncnc4)cc23)CC1` [Example 168, 4-((cis-4-hydroxy-4-methylcyclohexyl)amino)-6-(5-pyrimidinyl)pyrrolo [1,2-b]pyridazine-3-carboxamide], for which the IC50 on JAK1 is 105 nM; on JAK3, 17.1 nM.

In the case of `COc1cccc(-c2cc3c(NC4C5CC6CC4CC(O)(C6)C5)c(C(N)=O)cnn3c2)c1` (centres unmarked) [Example 176, 4-((5-hydroxyadamantan-2-yl)amino)-6-(3-methoxyphenyl)pyrrolo [1,2-b]pyridazine-3-carboxamide], the IC50 on JAK3 was determined as 8.9 nM. Turning to `Cc1cccc(C)c1-c1cc2c(NC3C4CC5CC3CC(O)(C5)C4)c(C(N)=O)cnn2c1` (centres unmarked) [Example 177, 6-(2,6-dimethylphenyl)-4-((5-hydroxyadamantan-2-yl)amino)pyrrolo [1,2-b]pyridazine-3-carboxamide], the IC50 on JAK3 amounted to 524 nM. Regarding `COc1ccccc1-c1cc2c(NC3C4CC5CC3CC(O)(C5)C4)c(C(N)=O)cnn2c1` (centres unmarked) [Example 178, 4-((5-hydroxyadamantan-2-yl)amino)-6-(2-methoxyphenyl)pyrrolo [1,2-b]pyridazine-3-carboxamide], the IC50 on JAK3 turned out to be 1 nM.

In the case of `Cn1nccc1-c1cc2c(NC3C4CC5CC3CC(O)(C5)C4)c(C(N)=O)cnn2c1` (centres unmarked) [Example 185, 4-((5-hydroxyadamantan-2-yl)amino)-6-(1-methyl-1H-pyrazol-5-yl) pyrrolo[1,2-b] pyridazine-3-carboxamide], the IC50 at JAK3 is 6.2 nM. `Cc1ccc(-c2cc3c(NC4C5CC6CC4CC(O)(C6)C5)c(C(N)=O)cnn3c2)cc1` (centres unmarked) [Example 187, 4-((5-hydroxyadamantan-2-yl)amino)-6-(4-methylphenyl)pyrrolo [1,2-b]pyridazine-3-carboxamide]: the 50% inhibitory concentration (IC50) at JAK1 stood at 63.4 nM. As for `CC1(C)[C@H](Nc2c(C(N)=O)cnn3cc(-c4cccnc4)cc23)CC[C@]1(C)N` [Example 192, 4-(((1R,3S)-3-amino-2,2,3-trimethylcyclopentyl)amino)-6-(3-pyridinyl) pyrrolo[1,2-b]pyridazine-3-carboxamide], the IC50 was found to be 0.7 nM on JAK1 and 0.5 nM at JAK3. `Cc1ccncc1-c1cc2c(N[C@@H]3CC[C@](C)(N)C3(C)C)c(C(N)=O)cnn2c1` [Example 195, 4-(((1R,3S)-3-amino-2,2,3-trimethylcyclopentyl)amino)-6-(4-methyl-3-pyridinyl)pyrrolo[1,2-b] pyridazine-3-carboxamide]: the figures for the IC50 at JAK1 and on JAK3 were 1.3 nM and 6.1 nM, respectively.

`CC1(C)[C@H](Nc2c(C(N)=O)cnn3cc(-c4ccc(N5CCCC5)nc4)cc23)CC[C@]1(C)N` [Example 213, 4-(((1R,3S)-3-amino-2,2,3-trimethylcyclopentyl)amino)-6-(6-(1-pyrrolidinyl)-3-pyridinyl)pyrrolo[1,2-b]pyridazine-3-carboxamide]: the results for the IC50 on JAK1 and on JAK3 were 17.3 nM and 9.5 nM, respectively.

In the case of `CC1(C)[C@H](Nc2c(C(N)=O)cnn3cc(-c4ccc(C(=O)NC5CC5)cc4)cc23)CC[C@]1(C)N` [Example 221, 4-(((1R,3S)-3-amino-2,2,3-trimethylcyclopentyl)amino)-6-(4-(cyclopropylcarbamoyl)phenyl)pyrrolo[1,2-b] pyridazine-3-carboxamide], the IC50 came to 0.7 nM on JAK1 and 1.6 nM at JAK3. For `CC1(C)[C@H](Nc2c(C(N)=O)cnn3cc(-c4ccccc4C(N)=O)cc23)CC[C@]1(C)N` [Example 255, 4-(((1R,3S)-3-amino-2,2,3-trimethylcyclopentyl)amino)-6-(2-carbamoylphenyl)pyrrolo [1,2-b]pyridazine-3-carboxamide], the concentration for half-maximal inhibition (IC50) on JAK1 stood at 2.7 nM; on JAK3, 6 nM.
